US9833497B2, “Human originated EGF domain proteins and use of the same” (CHENGDU SOURCEBIO LIMITED-LIABILITY COMPANY, priority 2013, dated 2017)

Columns and labels:
Type in all cases: cell-based
E. coli DH5α = assay: Antibacterial activity: MIC and growth curve against E. coli DH5α in 96-well plate; conditions: minimal inhibitory concentration against E. coli DH5α; 96-well plate, 5×10^5 CFU/mL, 37° C., judged after 8 h
Method in brief: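 MIC taken as lowest protein level with no bacterial growth, tracked by A600 every 30 min during 37 °C, 175 rpm culture. Two-fold protein series 50-12.5 μg/mL final, triplicate wells, against 5×10^5 CFU/mL of LB-washed mid-log cells.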

E. coli BL21 = assay: MIC against Gram-negative bacteria: E. coli BL21; conditions: E. coli BL21; for MIC / MIC against E. coli BL21: 10 h cultivation at 37° C.; for MIC (μg/mL) E. coli BL21: 96-well plate, 37° C., 10 h; for MIC (μg/mL) E. coli BL21 / MIC against E. coli BL21: 5×10^5 CFU/mL
Method in brief: (§1)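 LB broth cultures at McFarland 0.5, spun down, resuspended, diluted to 5×10^5 CFU/mL final. Two-fold serial dilutions of purified human EGF domain proteins, triplicate. 37° C, 175 rpm shaking. Endpoint: no visible growth.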

Pseudomonas aeruginosa = assay: MIC against Gram-negative bacteria: Pseudomonas aeruginosa; conditions: for MIC: P. aeruginosa; for MIC / MIC against P. aeruginosa: 10 h cultivation at 37° C.; for MIC (μg/mL) P. aeruginosa / MIC against P. aeruginosa: Pseudomonas aeruginosa, 5×10^5 CFU/mL; for MIC (μg/mL) P. aeruginosa: 96-well plate, 37° C., 10 h
Method in brief: as §1

Klebsiella pneumonia = assay: MIC against Gram-negative bacteria: Klebsiella pneumonia; conditions: for MIC: K. pneumonia; for MIC / MIC against K. pneumonia: 10 h cultivation at 37° C.; for MIC (μg/mL) K. pneumonia / MIC against K. pneumonia: Klebsiella pneumonia, 5×10^5 CFU/mL; for MIC (μg/mL) K. pneumonia: 96-well plate, 37° C., 10 h
Method in brief: as §1

Enterobacter cloacae = assay: MIC against Gram-negative bacteria: Enterobacter cloacae; conditions: for MIC: E. cloacae; for MIC / MIC against E. cloacae: 10 h cultivation at 37° C.; for MIC (μg/mL) E. cloacae / MIC against E. cloacae: Enterobacter cloacae, 5×10^5 CFU/mL; for MIC (μg/mL) E. cloacae: 96-well plate, 37° C., 10 h
Method in brief: as §1

Aeromonas hydrophila = assay: MIC against Gram-negative bacteria: Aeromonas hydrophila; conditions: for MIC: A. hydrophila; for MIC / MIC against A. hydrophila: 10 h cultivation at 37° C.; for MIC (μg/mL) A. hydrophila / MIC against A. hydrophila: Aeromonas hydrophila, 5×10^5 CFU/mL; for MIC (μg/mL) A. hydrophila: 96-well plate, 37° C., 10 h
Method in brief: as §1

Citrobacter diversus = assay: MIC against Gram-negative bacteria: Citrobacter diversus; conditions: for MIC: C. diversus; for MIC / MIC against C. diversus: 10 h cultivation at 37° C.; for MIC (μg/mL) C. diversus / MIC against C. diversus: Citrobacter diversus, 5×10^5 CFU/mL; for MIC (μg/mL) C. diversus: 96-well plate, 37° C., 10 h
Method in brief: as §1

Moraxella catarrhalis = assay: MIC against Gram-negative bacteria: Moraxella catarrhalis; conditions: for MIC: M. catarrhalis; for MIC / MIC against M. catarrhalis: 10 h cultivation at 37° C.; for MIC (μg/mL) M. catarrhalis / MIC against M. catarrhalis: Moraxella catarrhalis, 5×10^5 CFU/mL; for MIC (μg/mL) M. catarrhalis: 96-well plate, 37° C., 10 h
Method in brief: as §1

Proteus mirabilis = assay: MIC against Gram-negative bacteria: Proteus mirabilis; conditions: for MIC: P. mirabilis; for MIC / MIC against P. mirabilis: 10 h cultivation at 37° C.; for MIC (μg/mL) P. mirabilis / MIC against P. mirabilis: Proteus mirabilis, 5×10^5 CFU/mL; for MIC (μg/mL) P. mirabilis: 96-well plate, 37° C., 10 h
Method in brief: as §1

Proteus vulgaris = assay: MIC against Gram-negative bacteria: Proteus vulgaris; conditions: for MIC: P. vulgaris; for MIC / MIC against P. vulgaris: 10 h cultivation at 37° C.; for MIC (μg/mL) P. vulgaris / MIC against P. vulgaris: Proteus vulgaris, 5×10^5 CFU/mL; for MIC (μg/mL) P. vulgaris: 96-well plate, 37° C., 10 h
Method in brief: as §1

Serratia marcescens = assay: MIC against Gram-negative bacteria: Serratia marcescens; conditions: for MIC: S. marcescens; for MIC / MIC against S. marcescens: 10 h cultivation at 37° C.; for MIC (μg/mL) S. marcescens / MIC against S. marcescens: Serratia marcescens, 5×10^5 CFU/mL; for MIC (μg/mL) S. marcescens: 96-well plate, 37° C., 10 h
Method in brief: as §1

PRT1027 (PGNPCYDGSHMCDTTARCHPGTGVDYTCECASGYQGDGRNCV; listed as Homo sapiens)
25 µg/mL: MIC (E. coli BL21) | MIC (Klebsiella pneumonia)
12.5 µg/mL: MIC (E. coli DH5α) | MIC (Pseudomonas aeruginosa) | MIC (Aeromonas hydrophila) | MIC (Moraxella catarrhalis) | MIC (Proteus vulgaris)
50 µg/mL: MIC (Enterobacter cloacae) | MIC (Citrobacter diversus) | MIC (Proteus mirabilis) | MIC (Serratia marcescens)

PRT86 (VTNACASGPCPPHADCRDLWQTFSCTCQPGYYGPGCV; listed as Homo sapiens)
12.5 µg/mL: MIC (μg/mL) E. coli BL21 (E. coli BL21) | MIC (μg/mL) K. pneumonia (Klebsiella pneumonia) | MIC (μg/mL) A. hydrophila (Aeromonas hydrophila) | MIC (μg/mL) M. catarrhalis (Moraxella catarrhalis) | MIC (μg/mL) P. vulgaris (Proteus vulgaris) | MIC (μg/mL) S. marcescens (Serratia marcescens)
50 µg/mL: MIC (E. coli DH5α)
25 µg/mL: MIC (μg/mL) P. aeruginosa (Pseudomonas aeruginosa) | MIC (μg/mL) E. cloacae (Enterobacter cloacae) | MIC (μg/mL) C. diversus (Citrobacter diversus) | MIC (μg/mL) P. mirabilis (Proteus mirabilis)

PRT1454 (DVNECFYEELNACSGRELCANLEGSYWCVCHQEAPATSPRKLNLEWEDCP; listed as Homo sapiens)
12.5 µg/mL: MIC against E. coli BL21 (E. coli BL21) | MIC against P. aeruginosa (Pseudomonas aeruginosa) | MIC against C. diversus (Citrobacter diversus) | MIC against P. mirabilis (Proteus mirabilis)
25 µg/mL: MIC (E. coli DH5α) | MIC against K. pneumonia (Klebsiella pneumonia) | MIC against A. hydrophila (Aeromonas hydrophila) | MIC against P. vulgaris (Proteus vulgaris)
50 µg/mL: MIC against E. cloacae (Enterobacter cloacae) | MIC against M. catarrhalis (Moraxella catarrhalis) | MIC against S. marcescens (Serratia marcescens)

PRT1402 (DGCPDLCNGNGRCTLGQNSWQCVCQTGWRGPGCN; listed as Homo sapiens)
50 µg/mL: MIC against E. cloacae (Enterobacter cloacae) | MIC against P. mirabilis (Proteus mirabilis)
12.5 µg/mL: MIC against E. coli BL21 (E. coli BL21) | MIC against K. pneumonia (Klebsiella pneumonia) | MIC against C. diversus (Citrobacter diversus) | MIC against S. marcescens (Serratia marcescens)
25 µg/mL: MIC (E. coli DH5α) | MIC against P. aeruginosa (Pseudomonas aeruginosa) | MIC against A. hydrophila (Aeromonas hydrophila) | MIC against M. catarrhalis (Moraxella catarrhalis) | MIC against P. vulgaris (Proteus vulgaris)

PRT1039 (SSGICDEASCIHGGTCTAIKADSYICLCPLGFKGRHCE; listed as Homo sapiens)
50 µg/mL: MIC (E. coli DH5α) | MIC (E. coli BL21) | MIC (Pseudomonas aeruginosa) | MIC (Aeromonas hydrophila) | MIC (Citrobacter diversus) | MIC (Proteus mirabilis) | MIC (Serratia marcescens)
25 µg/mL: MIC (Enterobacter cloacae)
12.5 µg/mL: MIC (Klebsiella pneumonia) | MIC (Moraxella catarrhalis) | MIC (Proteus vulgaris)

PRT38 (VRDLCGQRTTDACEQLCDPETGECSCHEGYAPDPVHRHLCV; listed as Homo sapiens)
50 µg/mL: MIC (E. coli DH5α) | MIC (μg/mL) K. pneumonia (Klebsiella pneumonia) | MIC (μg/mL) C. diversus (Citrobacter diversus) | MIC (μg/mL) P. vulgaris (Proteus vulgaris) | MIC (μg/mL) S. marcescens (Serratia marcescens)
12.5 µg/mL: MIC (μg/mL) P. aeruginosa (Pseudomonas aeruginosa) | MIC (μg/mL) M. catarrhalis (Moraxella catarrhalis)
25 µg/mL: MIC (μg/mL) E. coli BL21 (E. coli BL21) | MIC (μg/mL) E. cloacae (Enterobacter cloacae) | MIC (μg/mL) P. mirabilis (Proteus mirabilis)
100 µg/mL: MIC (μg/mL) A. hydrophila (Aeromonas hydrophila)

PRT1449 (ACAPGHFGADCRLQCQCQNGGTCDRFSGCVCPSGWHGVHCE; listed as Homo sapiens)
25 µg/mL: MIC against E. coli BL21 (E. coli BL21) | MIC against A. hydrophila (Aeromonas hydrophila)
50 µg/mL: MIC (E. coli DH5α) | MIC against K. pneumonia (Klebsiella pneumonia) | MIC against C. diversus (Citrobacter diversus) | MIC against P. mirabilis (Proteus mirabilis) | MIC against S. marcescens (Serratia marcescens)
12.5 µg/mL: MIC against P. aeruginosa (Pseudomonas aeruginosa) | MIC against E. cloacae (Enterobacter cloacae) | MIC against M. catarrhalis (Moraxella catarrhalis) | MIC against P. vulgaris (Proteus vulgaris)
